Read-outs that look alike come from different tables or passages of the source.
What was measured:
human factor VIIa = human factor VIIa (Homo sapiens, UniProt P08709); assay: biochemical
Experimental: 1. Assay for FVIIa-inhibiting Activity
A 10 vol % DMSO solution of a test compound (20 μL) was mixed with 40 μL Thromborel®S (50 mg/mL, Dade Behring, GTS-200A), 20 μL Spectrozyme®fVIIa (5 mmol/L, American Diagnostica Inc., #217L), 20 μL Tris buffer (500 mmol/L Tris/HCl, pH 7.5, 1500 mmol/L NaCl, 50 mmol/L CaCl2) and 80 μL distilled water, followed by stirring. […] The initial reaction velocity was set to 100% in the case of adding 10 vol % DMSO alone, instead of a test compound. […] This concentration was defined as an IC50 value.

human thrombin = biological target: T1, human thrombin (Homo sapiens, UniProt P00734); assay: Assay for thrombin-inhibiting activity (chromogenic substrate FVR-pNa); assay type: biochemical; details: for Thrombin selectivity: ratio IC50 Thrombin / IC50 Factor VIIa
T1 construct: addition of 20 μ2L human thrombin (5 U/mL, SIGMA, T 1063); purchased SIGMA T 1063

[1] = 50% inhibition of initial reaction velocity, room temperature, absorbance at 405 nm, read-out: IC50 Thrombin

Chain of human factor VIIa (P08709 213-466 limits assumed): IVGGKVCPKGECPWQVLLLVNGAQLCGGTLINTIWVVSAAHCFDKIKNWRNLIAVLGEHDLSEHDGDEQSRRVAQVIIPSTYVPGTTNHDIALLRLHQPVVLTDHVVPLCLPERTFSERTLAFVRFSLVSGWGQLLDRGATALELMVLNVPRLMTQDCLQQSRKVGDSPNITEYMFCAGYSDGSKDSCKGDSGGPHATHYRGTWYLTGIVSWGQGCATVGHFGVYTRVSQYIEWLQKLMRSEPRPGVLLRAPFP
Chain of human factor VIIa (P08709 61-212 limits assumed): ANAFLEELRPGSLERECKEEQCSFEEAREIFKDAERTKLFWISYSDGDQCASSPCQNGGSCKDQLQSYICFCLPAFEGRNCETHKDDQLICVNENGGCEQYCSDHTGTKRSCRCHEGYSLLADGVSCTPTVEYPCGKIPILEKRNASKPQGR
Chain of human factor VIIa (P13726 33-295 partner): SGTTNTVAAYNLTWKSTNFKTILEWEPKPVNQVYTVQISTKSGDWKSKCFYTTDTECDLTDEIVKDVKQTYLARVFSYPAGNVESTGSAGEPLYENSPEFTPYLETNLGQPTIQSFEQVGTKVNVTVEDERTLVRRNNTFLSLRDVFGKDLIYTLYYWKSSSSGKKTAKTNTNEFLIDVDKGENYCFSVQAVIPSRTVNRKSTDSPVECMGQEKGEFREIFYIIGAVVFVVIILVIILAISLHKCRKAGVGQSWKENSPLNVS

Structure (SMILES)	IC50 (human factor VIIa) [nM]	IC50 (human thrombin; [1]) [nM]	IC50 (human thrombin) [nM]	Thrombin selectivity (human thrombin)
CCS(=O)(=O)N[C@H](Cc1c[nH]c2ccc(OCc3cccc(C(=O)O)c3)cc12)C(=O)N[C@@H](CCC(N)=O)C(=O)NCc1ccc(C(=N)N)cc1 [Example 22, 5-[(3-Carboxybenzyl)oxy]-N-(ethylsulfonyl)-D-tryptophyl-N^1-{4-[amino(imino)methyl]benzyl}-L-glutamide]	39	17500	–	–
CCS(=O)(=O)N[C@H](Cc1ccc(-c2ccccc2)cc1)C(=O)N[C@@H](CCSC)C(=O)NCc1ccc(C(=N)N)cc1 [Example 67]	341	–	2280	1
CCCOc1ccc2[nH]cc(C[C@@H](NS(=O)(=O)CC)C(=O)N[C@@H](CCC(N)=O)C(=O)NCc3ccc(C(=N)N)cc3)c2c1 [Example 83]	55	14400	–	–
CCS(=O)(=O)N[C@H](Cc1ccc(C(=O)c2ccccc2)cc1)C(=O)N[C@@H](CCC(N)=O)C(=O)NCc1ccc(C(=N)N)cc1 [Example 81]	177	5690	–	–
N=C(N)c1ccc(CNC(=O)[C@H](CCC(N)=O)NC(=O)[C@H](N)Cc2ccc(-c3ccccc3)cc2)cc1 [Example 66]	2940	59100	–	20
CCS(=O)(=O)N[C@H](Cc1c[nH]c2ccccc12)C(=O)N[C@@H](CCC(N)=O)C(=O)NCc1ccc(C(=N)N)cc1 [Example 5, N-(Ethylsulfonyl)-D-tryptophyl-N^1-(4-amidinobenzyl)-L-glutamide]	62	5880	–	95
CCS(=O)(=O)N[C@H](Cc1c[nH]c2ccc(C)cc12)C(=O)N[C@@H](CCC(N)=O)C(=O)NCc1ccc(C(=N)N)cc1 [Example 82]	131	12500	–	–
N=C(N)c1ccc(CNC(=O)[C@H](CCC(N)=O)NC(=O)[C@@H](Cc2c[nH]c3ccccc23)NS(=O)(=O)CC(=O)O)cc1 [Example 146]	153	80200	–	524
CCS(=O)(=O)N[C@H](Cc1c[nH]c2ccc(OCc3ccccc3)cc12)C(=O)N[C@@H](CCC(N)=O)C(=O)NCc1ccc(C(=N)N)cc1 [Example 170]	37	9420	–	–
CCS(=O)(=O)N[C@H](Cc1ccc(-c2ccccc2)cc1)C(=O)N[C@@H](CCC(N)=O)C(=O)NCc1ccc(C(=N)N)cc1 [Example 65]	–	9420	–	–
CCS(=O)(=O)N[C@H](Cc1c[nH]c2ccc(OC)cc12)C(=O)N[C@@H](CCC(N)=O)C(=O)NCc1ccc(C(=N)N)cc1 [Example 148]	65	8330	–	–
CCS(=O)(=O)N[C@H](Cc1ccc(OC)cc1)C(=O)N[C@@H](CCC(N)=O)C(=O)NCc1ccc(C(=N)N)cc1 [Example 73]	81	397	–	5
N=C(N)c1ccc(CNC(=O)[C@H](CCC(N)=O)NC(=O)[C@@H](Cc2c[nH]c3ccccc23)NS(=O)(=O)Cc2cccc(C(=O)O)c2)cc1 [Example 7]	37	17900	–	483

— patent publication US7001887B2, “Peptide derivatives” (priority 2001, dated 2006)
